Test results as given in patent US12109264B2, “Motile sperm domain containing protein 2 and inflammation” (ImmuneWalk Therapeutics, Inc., priority 2015, dated 2024).
“Also recorded” adds a separate entry of the source.

Experiments:
MOSPD2 [1] = molecular target: T1, MOSPD2 (Homo sapiens, UniProt Q8NHP6); assay: Precipitation of human monocyte proteins with labeled compound, differential display by Mass-Spectrometry; type: binding; conditions: proteins from human monocytes
T1 construct: labelled VB-201 and VB-221 were employed on cell lysates from human CD14 monocytes; endogenous in cells; host or cells: primary human CD14 monocytes from peripheral blood of healthy donors
T1 sequence (Q8NHP6 1-518): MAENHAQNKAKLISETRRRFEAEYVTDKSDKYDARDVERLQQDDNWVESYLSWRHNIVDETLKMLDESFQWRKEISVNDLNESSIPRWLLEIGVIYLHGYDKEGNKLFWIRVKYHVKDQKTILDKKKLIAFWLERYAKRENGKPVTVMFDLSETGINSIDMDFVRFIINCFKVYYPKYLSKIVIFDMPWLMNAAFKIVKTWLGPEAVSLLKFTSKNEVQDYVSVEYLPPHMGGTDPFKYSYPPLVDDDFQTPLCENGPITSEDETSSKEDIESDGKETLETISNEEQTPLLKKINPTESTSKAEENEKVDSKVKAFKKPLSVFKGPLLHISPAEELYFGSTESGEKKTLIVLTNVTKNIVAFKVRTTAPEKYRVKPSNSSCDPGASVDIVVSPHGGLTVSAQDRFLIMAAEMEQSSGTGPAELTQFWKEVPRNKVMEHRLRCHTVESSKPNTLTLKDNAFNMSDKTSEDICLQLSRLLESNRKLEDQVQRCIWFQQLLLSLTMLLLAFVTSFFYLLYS

[2] = molecular target: T2, HA-tagged human MOSPD2 on HEK293 cells (Homo sapiens, UniProt Q8NHP6); assay: Cell-surface binding by flow cytometry on transfected HEK293 cells; conditions: for staining of / binding to cells that express MOSPD2 (HA positive): labelled compound (OB201/OB221), streptavidin-APC, HEK293 transfected with HA-tagged MOSPD2
T2 construct: Full length human MOSPD2 cDNA was inserted, using EcoRI and XbaI restriction sites; HA (YPYDVPDYA); expressed in transfected cells; host or cells: HEK293
T2 sequence (Q8NHP6 1-518): T1 sequence (Q8NHP6 1-518)
Experimental: HEK293 cells were transfected for 48 hours with empty plasmid or plasmid encoding hemagglutinin (HA)-tagged human MOSPD2 using jetPRIME transfection reagent (Polyplus transfection, France). Transfection efficiency was determined by flow cytometry using anti-HA-PE (miltenyi Biotec, Germany) antibody.
(§1) VB-201 and VB-221 were labeled with biotin as follows. VB-201, VB-221 and ovalbumin (OVA, Sigma, Israel) were dissolved in 0.1M MES buffer (Thermo Scientific, Rockford, IL) and conjugated using EDC [1-ethyl-3-(dimethylaminopropyl) carbodiimide HCL] (Thermo Scientific) at a molar ratio of 100 (VB-201/VB-221):1 (OVA):240 (EDC) for 2-3 hr at room temperature. After which, samples were transferred to 10 kDa dialysis cassettes (Thermo Scientific) and dialyzed overnight against PBS. The ovalbumin bound VB-201 (OB201) and VB-221 (OB221) were then conjugated with amine-PEG2-biotin (in 0.1M MES buffer) using EDC at a molar ratio of 1 (OB201/0B221):100 (amine-PEG2-biotin):700 (EDC). The reaction was allowed to proceed for 2-3 hr at room temperature after which samples were again transferred to a 10 kDa dialysis cassette and dialyzed overnight against PBS.
Streptavidin-APC (eBioscience, San Diego, CA) was used to detect binding of labelled VB-201 or VB-221 in flow cytometry experiments.
Studies were also conducted to assess whether VB-201 can bind MOSPD2 in its native form, when expressed on the cell surface. Thus, HEK293 cells were transfected with a plasmid encoding HA-tagged human MOSPD2 and then stained with labelled VB-201 or VB-221.

monocytes = conditions: cited from earlier work
MOSPD2 [3] = molecular target: T1, MOSPD2; assay: Precipitation from human CD14 monocyte lysate, blot against MOSPD2; type: binding; conditions: labelled compound (OB201/OB221)
Experimental: as §1
(§2) Cells were lysed using a 1% NP-40 lysis buffer containing 1:100 protease and phosphatase inhibitors, followed by 20 min incubation on ice and 15 min centrifugation at maximum speed. Samples were incubated overnight at 4° C. with solvent, OB201 or OB221 in a rotator. Streptavidin agarose beads (Sigma, Israel) were added for 2 hours. Protein elution was performed with lysis buffer without DTT for 10 min at room temperature. Sample loading, transfer and immuno-blotting were performed as described above. […]

TLR2 = molecular target: T3, TLR2 (Homo sapiens, UniProt O60603); assay: Precipitation from human CD14 monocyte lysate, blot against TLR2; type: binding; conditions: labelled compound (OB201/OB221)
T3 construct: endogenous in cells; host or cells: primary human CD14 monocytes
T3 sequence (O60603 21-784): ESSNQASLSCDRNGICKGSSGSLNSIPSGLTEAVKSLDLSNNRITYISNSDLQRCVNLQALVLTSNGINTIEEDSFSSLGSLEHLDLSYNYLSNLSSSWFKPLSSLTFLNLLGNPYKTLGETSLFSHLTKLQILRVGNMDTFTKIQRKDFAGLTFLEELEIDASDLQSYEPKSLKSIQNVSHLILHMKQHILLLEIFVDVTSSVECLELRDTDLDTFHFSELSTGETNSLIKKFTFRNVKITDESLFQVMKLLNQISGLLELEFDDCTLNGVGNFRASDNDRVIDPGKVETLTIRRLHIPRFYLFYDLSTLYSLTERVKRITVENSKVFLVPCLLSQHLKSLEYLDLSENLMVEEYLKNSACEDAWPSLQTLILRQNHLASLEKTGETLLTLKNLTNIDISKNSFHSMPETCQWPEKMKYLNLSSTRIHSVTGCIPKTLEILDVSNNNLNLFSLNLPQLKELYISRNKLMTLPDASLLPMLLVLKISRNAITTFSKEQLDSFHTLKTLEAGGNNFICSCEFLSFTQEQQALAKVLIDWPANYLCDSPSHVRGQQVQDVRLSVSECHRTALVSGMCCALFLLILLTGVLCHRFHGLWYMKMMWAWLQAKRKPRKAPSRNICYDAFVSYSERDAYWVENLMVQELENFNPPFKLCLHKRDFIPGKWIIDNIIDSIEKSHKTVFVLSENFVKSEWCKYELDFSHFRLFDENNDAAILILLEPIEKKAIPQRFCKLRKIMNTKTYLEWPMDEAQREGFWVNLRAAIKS
Experimental: as §1, §2

[4] = system: chemokine-induced signaling in human monocytes; conditions: cited from earlier work

1-hexadecyl-2-(4′-carboxy)butyl-glycero-3-phosphocholine [VB-201]
binding of MOSPD2 (Mass-Spectrometry of precipitated proteins) (MOSPD2 [1]): strong binding
binding to cells transfected with empty vector ([2]; HEK293 transfected with empty vector): not
staining of / binding to cells that express MOSPD2 (HA positive) [2]: binds; also recorded: profound staining
migration of monocytes (monocytes; in vitro and in vivo): inhibits
precipitation of MOSPD2 (MOSPD2 [3]): binds; also recorded: markedly more intense than VB-221
precipitation of TLR2 (TLR2): comparable intensity

CCCCCCCCCCC(CCCCCCCC)COCC(COP(=O)([O-])OCC[N+](C)(C)C)OCCCCC(=O)O (centres unmarked) [VB-221, 1-(2′-octyl)dodecyl-2-(4′-carboxy)butyl-glycero-3-phosphocholine]
binding of MOSPD2 (Mass-Spectrometry of precipitated proteins) (MOSPD2 [1]): not
staining of / binding to cells that express MOSPD2 (HA positive) [2]: only weak staining
chemokine-induced migration in human monocytes (monocytes): did not inhibit
chemokine-induced signaling in human monocytes [4]: did not inhibit
precipitation of TLR2 (TLR2): comparable intensity
